The text below walks through data of article PMC6646438 (Natural Products and Bioprospecting, 2019).

For one test, the target named is T1, melatonin MT2 receptor (Homo sapiens, UniProt P49286).
T1 construct: gene MTNR1B
T1 sequence (P49286 1-362): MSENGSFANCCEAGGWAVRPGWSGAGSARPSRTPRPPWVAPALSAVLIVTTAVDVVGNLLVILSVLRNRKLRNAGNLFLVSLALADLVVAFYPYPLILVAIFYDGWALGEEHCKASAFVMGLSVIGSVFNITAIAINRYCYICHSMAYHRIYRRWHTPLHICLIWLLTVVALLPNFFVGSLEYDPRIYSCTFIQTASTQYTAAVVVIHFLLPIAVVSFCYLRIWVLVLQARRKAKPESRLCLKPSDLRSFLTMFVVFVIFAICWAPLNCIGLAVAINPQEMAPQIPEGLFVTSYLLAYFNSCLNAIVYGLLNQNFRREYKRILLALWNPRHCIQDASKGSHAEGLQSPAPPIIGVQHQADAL
The test can be described thus: Fluo-8 calcium flux agonist assay in HEK293 cells stably expressing human MT2, dose-response. It is filed as cell-based.

In a further test the target is T2, melatonin MT1 receptor (Homo sapiens, UniProt P48039).
T2 construct: gene MTNR1A
Put plainly: Fluo-8 calcium flux agonist assay in HEK293 cells stably expressing human MT1, single concentration […]. It is filed as cell-based. The settings on record: read-out: % agonistic rate at 0.5 mM.

T2 sequence (P48039 whole entry): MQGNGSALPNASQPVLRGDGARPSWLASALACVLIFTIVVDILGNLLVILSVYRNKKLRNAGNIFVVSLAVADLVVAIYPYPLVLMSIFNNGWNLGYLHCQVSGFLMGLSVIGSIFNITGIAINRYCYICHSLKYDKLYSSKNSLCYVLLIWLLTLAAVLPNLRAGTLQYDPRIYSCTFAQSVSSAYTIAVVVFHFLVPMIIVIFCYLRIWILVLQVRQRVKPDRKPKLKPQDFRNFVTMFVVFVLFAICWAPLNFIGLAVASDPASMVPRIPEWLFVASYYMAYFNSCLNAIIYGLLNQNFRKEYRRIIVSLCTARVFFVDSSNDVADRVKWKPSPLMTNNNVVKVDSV

On to `Oc1ccc(Cc2ccc(O)c(Cc3cc(Cc4ccc(O)cc4)c(O)c(Cc4ccc(O)cc4)c3)c2)cc1` [compound 1, gastropolybenzylol G], for which, at melatonin MT2 receptor, the EC50 amounted to 76.2 µM. Further, at melatonin MT1 receptor, the activation at 500 µM is 55.9 ± 4.84%.
